Patent publication US12185723B2, “Herbicidally active 3-phenylisoxazoline-5-carboxamides of s-containing cyclopentenylcarboxylic esters” (Bayer Aktiengesellschaft, priority 2019, dated 2025)

Key:
Assay type in all cases: in vivo
Alopecurus myosuroides = experiment: Post-emergence herbicidal action against ALOMY; conditions: visual rating about 3 weeks after treatment
Experimental: (§1) Post-Emergence Herbicidal Action Against Harmful Plants and Crop Plant Compatibility Seeds of monocotyledonous and dicotyledonous weeds and crop plants are placed in sandy loam in plastic or wood-fibre pots, covered with soil and cultivated in a greenhouse under controlled growth conditions. 2 to 3 weeks after sowing, the test plants are treated at the one-leaf stage. The compounds of the invention, formulated in the form of wettable powders (WP) or as emulsion concentrates (EC), are then sprayed onto the green parts of the plants as aqueous suspension or emulsion with addition of 0.5% additive at a water application rate of 600 l/ha (converted). After the test plants have been kept in the greenhouse under optimum growth conditions for about 3 weeks, the activity of the preparations is rated visually in comparison to untreated controls. For example, 100% activity=the plants have died, 0% activity=like control plants. [table]

Avena fatua = experiment: Post-emergence herbicidal action against AVEFA; conditions: visual rating about 3 weeks after treatment
Experimental: as §1

DIGSA = experiment: Post-emergence herbicidal action against DIGSA; conditions: visual rating about 3 weeks after treatment
Experimental: as §1, with “plants.” for “plants. [table]”

Echinochloa crus-galli = experiment: Post-emergence herbicidal action against ECHCG; conditions: visual rating about 3 weeks after treatment
Experimental: as §1

Setaria viridis = experiment: Post-emergence herbicidal action against SETVI; conditions: visual rating about 3 weeks after treatment
Experimental: as §1

Abutilon theophrasti = experiment: Post-emergence herbicidal action against ABUTH; conditions: 20 g a.i./ha, visual rating about 3 weeks after treatment
Experimental: as §1

Pharbitis purpurea = experiment: Post-emergence herbicidal action against PHBPU; conditions: 20 g a.i./ha
Experimental: as §1

Veronica persica = experiment: Post-emergence herbicidal action against VERPE
Experimental: as §1

Lolium rigidum = experiment: Post-emergence herbicidal action against LOLRI; conditions: visual rating about 3 weeks after treatment
Experimental: as §1

Stellaria media = experiment: Post-emergence herbicidal action against STEME; conditions: 80 g a.i./ha
Experimental: as §1

Hordeum murinum = experiment: Post-emergence herbicidal action against HORMU
Experimental: as §1

Amaranthus retroflexus = experiment: Post-emergence herbicidal action against AMARE; conditions: 20 g a.i./ha
Experimental: as §1

Polygonum convolvulus = experiment: Post-emergence herbicidal action against POLCO; conditions: 20 g a.i./ha
Experimental: as §1

Row | SMILES | Herbicidal action against [%] ALOMY (Alopecurus myosuroides; 20 g a.i./ha) [%] | Herbicidal action against [%] AVEFA (Avena fatua; 20 g a.i./ha) [%] | Herbicidal action against [%] DIGSA (DIGSA; 20 g a.i./ha) [%] | Herbicidal action against [%] ECHCG (Echinochloa crus-galli; 20 g a.i./ha) [%] | Herbicidal action against [%] SETVI (Setaria viridis; 20 g a.i./ha) [%] | Herbicidal action against [%] ABUTH (Abutilon theophrasti) [%] | Herbicidal action against [%] PHBPU (Pharbitis purpurea) [%] | Herbicidal action against [%] VERPE (Veronica persica; 20 g a.i./ha) [%] | Herbicidal action against [%] LOLRI (Lolium rigidum; 20 g a.i./ha) [%] | Herbicidal action against [%] AMARE (Amaranthus retroflexus) [%] | further results
1 | CN(C)C(=O)SCCOC(=O)C1C=CC(NC(=O)C2(C)CC(c3cc(F)cc(F)c3)=NO2)C1 (stereo not shown) [Example I-04] | 100 | 80 | 80 | 80 | 80 | 80 | 80 | 80 |  |  | 
2 | CSCCOC(=O)C1C=CC(NC(=O)C2(C)CC(c3cccc(C#N)c3)=NO2)C1 (stereo not shown) [Example I-41] | 80 | 90 |  |  | 80 |  |  |  |  |  | Herbicidal action against [%] AVEFA (Avena fatua; 80 g a.i./ha): 100%; Herbicidal action against [%] DIGSA (DIGSA; 80 g a.i./ha): 80%; Herbicidal action against [%] LOLRI (Lolium rigidum; 80 g a.i./ha): 80%; Herbicidal action against [%] SETVI (Setaria viridis; 80 g a.i./ha): 80%; Herbicidal action against [%] STEME (Stellaria media): 80%; Herbicidal action against [%] VERPE (Veronica persica; 80 g a.i./ha): 80%; Herbicidal action against [%] HORMU (Hordeum murinum; 20 g a.i./ha): 80%; Herbicidal action against [%] HORMU (Hordeum murinum; 80 g a.i./ha): 90%
3 | COC1(C(=O)NC2C=CC(C(=O)OCCSC)C2)CC(c2cc(C)cc(F)c2)=NO1 (stereo not shown) [Example I-62] | 90 | 80 | 80 | 80 | 90 |  | 80 | 90 | 90 | 90 | Herbicidal action against [%] POLCO (Polygonum convolvulus): 80%
4 | CC1(C(=O)NC2C=CC(C(=O)OCCS(C)(=O)=O)C2)CC(c2cc(F)cc(F)c2)=NO1 (stereo not shown) [Example I-14] | 90 | 80 | 90 | 80 | 90 |  | 80 | 90 | 90 | 90 | 
5 | CCSCCOC(=O)C1C=CC(NC(=O)C2(OC)CC(c3cc(F)cc(F)c3)=NO2)C1 (stereo not shown) [Example I-22] | 90 | 90 | 90 | 80 | 90 | 80 | 80 | 90 | 90 | 80 | 
6 | CSCCOC(=O)C1C=CC(NC(=O)C2(CF)CC(c3cc(F)cc(F)c3)=NO2)C1 (stereo not shown) [Example I-74] |  |  | 90 | 90 |  | 90 |  | 80 | 90 | 80 | 
7 | C=CC1(C(=O)NC2C=CC(C(=O)OCCSC)C2)CC(c2cc(C)cc(C)c2)=NO1 (mixture of isomers) [Example I-45] |  |  |  |  |  |  |  | 80 |  |  | Herbicidal action against [%] ALOMY (Alopecurus myosuroides; 80 g a.i./ha): 90%; Herbicidal action against [%] AVEFA (Avena fatua; 80 g a.i./ha): 80%; Herbicidal action against [%] ECHCG (Echinochloa crus-galli; 80 g a.i./ha): 80%; Herbicidal action against [%] LOLRI (Lolium rigidum; 80 g a.i./ha): 90%; Herbicidal action against [%] SETVI (Setaria viridis; 80 g a.i./ha): 80%; Herbicidal action against [%] STEME (Stellaria media): 90%; Herbicidal action against [%] VERPE (Veronica persica; 80 g a.i./ha): 80%; Herbicidal action against [%] HORMU (Hordeum murinum; 20 g a.i./ha): 80%; Herbicidal action against [%] HORMU (Hordeum murinum; 80 g a.i./ha): 80%
